Data from PubChem BioAssay AID248 (DTP/NCI, 2004).
Values joined by “and” are separate entries in the source; they are usually repeats but may differ in a detail not shown here. Identical values can stand only once. Toxic doses and inconclusive results are not listed. Rule as the data show it: active = T/C of 150% or more; inactive = T/C below 125%.

Tested on: L1210 leukemia ip in BDF1 mice, survival T/C
Assay: NCI In Vivo Anticancer Drug Screen. Data for tumor model L1210 Leukemia (intraperitoneal) in B6D2F1 (BDF1) mice
Conditions: endpoint: mean survival time, higher = longer survival
Summary of the method: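 In this screen, tumor-bearing mice given compound are compared to those given vehicle, and their survival values are reported as a treated-to-control quotient.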

[1] = dose: 100.0 mg/kg/injection, schedule: Q04DX003 (ip), vehicle: Klucel (hydroxypropylcellulose) (HPC)
[2] = dose: 200.0 mg/kg/injection, schedule: Q04DX003 (ip), vehicle: Klucel (hydroxypropylcellulose) (HPC)
[3] = dose: 400.0 mg/kg/injection, schedule: Q04DX003 (ip), vehicle: Klucel (hydroxypropylcellulose) (HPC)
[4] = dose: 25.0 mg/kg/injection, schedule: Q04DX003 (ip), vehicle: Klucel (hydroxypropylcellulose) (HPC)
[5] = dose: 100.0 mg/kg/injection, schedule: Q01DX009 (ip), vehicle: Klucel (hydroxypropylcellulose) (HPC)
[6] = dose: 200.0 mg/kg/injection, schedule: Q01DX009 (ip), vehicle: Klucel (hydroxypropylcellulose) (HPC)
[7] = dose: 400.0 mg/kg/injection, schedule: Q01DX009 (ip), vehicle: Klucel (hydroxypropylcellulose) (HPC)
[8] = dose: 100.0 mg/kg/injection, schedule: Q01DX001 (ip), vehicle: Klucel (hydroxypropylcellulose) (HPC)
[9] = dose: 200.0 mg/kg/injection, schedule: Q01DX001 (ip), vehicle: Klucel (hydroxypropylcellulose) (HPC)
[10] = dose: 400.0 mg/kg/injection, schedule: Q01DX001 (ip), vehicle: Klucel (hydroxypropylcellulose) (HPC)
[11] = dose: 100.0 mg/kg/injection, schedule: Q01DX009 (ip), vehicle: saline
[12] = dose: 100.0 mg/kg/injection, schedule: Q04DX003 (ip), vehicle: saline
[13] = dose: 200.0 mg/kg/injection, schedule: Q01DX009 (ip), vehicle: saline
[14] = dose: 200.0 mg/kg/injection, schedule: Q04DX003 (ip), vehicle: saline
[15] = dose: 400.0 mg/kg/injection, schedule: Q04DX003 (ip), vehicle: saline
[16] = dose: 100.0 mg/kg/injection, schedule: Q01DX001 (ip), vehicle: carboxymethylcellulose (CMC)
[17] = dose: 200.0 mg/kg/injection, schedule: Q01DX001 (ip), vehicle: carboxymethylcellulose (CMC)
[18] = dose: 400.0 mg/kg/injection, schedule: Q01DX001 (ip), vehicle: carboxymethylcellulose (CMC)
[19] = dose: 50.0 mg/kg/injection, schedule: Q04DX003 (ip), vehicle: Klucel (hydroxypropylcellulose) (HPC)

Measured: T/C

COc1ccc2c(c1)CCC1C2CCC2(C)C(=O)C(n3cnc4c(=S)nc[nH]c43)CC12 (centres undefined)
inactive: dose: 100.0 mg/kg/injection, schedule: Q01DX001 (sc), vehicle: steriod suspending solution 106 % of control | dose: 200.0 mg/kg/injection, schedule: Q01DX001 (sc), vehicle: steriod suspending solution 110 % of control | dose: 400.0 mg/kg/injection, schedule: Q01DX001 (sc), vehicle: steriod suspending solution 110 % of control

O/N=C\CC/C=N\O
inactive: [1] 105 % of control | [2] 98 % of control | [3] 100 % of control

CCCCNC(=O)C1CC2c3cc(Br)cc4[nH]c(Br)c(c34)CC2N(C)C1 (centres undefined)
inactive: [4] 96 % of control | [1] 91 % of control | [3] 89 % of control

CC(C)CNC(=O)Cc1ccc(N(CCCl)CCCl)cc1
inactive: [1] 108 % of control | [2] 108 % of control | [3] 112 % of control

CC1=CC=C(C(=O)O)C1
inactive: [5] 90 % of control | [6] 100 % of control | [7] 92 % of control

O=C(NCCCl)NCC1CCCCO1 (centres undefined)
inactive: [8] 100 % of control | [5] 108 % of control | [9] 98 % of control | [6] 108 % of control | [10] 86 % of control | [7] 101 % of control

CC(O)Cn1cnc2c1c(=O)n(C)c(=O)n2C (centres undefined)
inactive: [11] 93 % of control | [12] 95 % of control | [13] 95 % of control | [14] 95 % of control | [15] 94 % of control

CCCCC[CH2][Sn]([I])([CH2]C)[CH2]C
inactive: dose: 1.56 mg/kg/injection, schedule: Q01DX009 (ip), vehicle: saline 95 % of control | dose: 3.13 mg/kg/injection, schedule: Q01DX009 (ip), vehicle: saline 90 % of control

NC(Cc1c[nH]c2cc(F)ccc12)C(=O)O (centres undefined)
inactive: dose: 100.0 mg/kg/injection, schedule: Q01DX009 (ip), vehicle: other 97 % of control | dose: 200.0 mg/kg/injection, schedule: Q01DX009 (ip), vehicle: other 96 % of control | dose: 400.0 mg/kg/injection, schedule: Q01DX009 (ip), vehicle: other 97 % of control

CN(C)C=Nc1ccc(Cl)c2ccccc12
inactive: [8] 99 % of control | [1] 98 % of control | [9] 96 % of control | [2] 101 % of control | [10] 97 % of control

O=C(CNCc1ccccc1)Oc1c(Cl)c(Cl)c(Cl)c(Cl)c1Cl
inactive: dose: 100.0 mg/kg/injection, schedule: Q04DX003 (ip), vehicle: other 94 % of control | dose: 200.0 mg/kg/injection, schedule: Q04DX003 (ip), vehicle: other 93 % of control

COc1cc(OC)c2cc1Cc1cc(c(OC)cc1OC)Cc1cc(c(OC)cc1OC)Cc1cc(c(OC)cc1OC)C2
inactive: [11] 94 % of control | [13] 86 % of control | dose: 400.0 mg/kg/injection, schedule: Q01DX009 (ip), vehicle: saline 86 % of control

O=c1oc2c(CN3CCOCC3)c(O)ccc2c2c1CCCC2
inactive: [16] 86 % of control | [17] 96 % of control | [18] 91 % of control

O=[N+]([O-])c1ccc(N2CCOCC2)cc1
inactive: [1] 95 % of control | [2] 100 % of control | [3] 105 % of control

Cc1ccc(NC(=O)c2ccc(Cl)cc2Cl)cc1Cl
inactive: [5] 96 % of control | [1] 104 % of control | [6] 91 % of control | [2] 97 % of control | [7] 94 % of control | [3] 95 % of control

O=C1C=C(O)c2[nH]c(=O)ccc2C1=O
inactive: dose: 5.0 mg/kg/injection, schedule: Q01DX001 (ip), vehicle: saline 97 % of control | dose: 10.0 mg/kg/injection, schedule: Q01DX001 (ip), vehicle: saline 101 % of control | dose: 20.0 mg/kg/injection, schedule: Q01DX001 (ip), vehicle: saline 97 % of control | dose: 40.0 mg/kg/injection, schedule: Q01DX001 (ip), vehicle: saline 97 % of control

CCC(CC)CCCC(C)Nc1ccnc2cc(Cl)ccc12 (centres undefined)
inactive: dose: 6.25 mg/kg/injection, schedule: Q01DX009 (ip), vehicle: saline 101 % of control | dose: 12.5 mg/kg/injection, schedule: Q01DX009 (ip), vehicle: saline 98 % of control | dose: 25.0 mg/kg/injection, schedule: Q01DX009 (ip), vehicle: saline 95 % of control

CN(C)N=Nc1ccc(C(=O)N/N=C/c2ccc([N+](=O)[O-])cc2)cc1
inactive: dose: 100.0 mg/kg/injection, schedule: Q04DX002 (ip), vehicle: saline with Tween-80 100 % of control | dose: 200.0 mg/kg/injection, schedule: Q04DX002 (ip), vehicle: saline with Tween-80 94 % of control | dose: 400.0 mg/kg/injection, schedule: Q04DX002 (ip), vehicle: saline with Tween-80 99 % of control

O=C(O)CCC(NC(=O)C1CCCCC1C(=O)O)C(=O)O (centres undefined)
inactive: [12] 96 % of control | [14] 86 % of control | [15] 87 % of control

OC(CCN1CCCCC1)(c1ccccc1)C1CCCC1 (centres undefined)
inactive: dose: 6.25 mg/kg/injection, schedule: Q01DX009 (ip), vehicle: Klucel (hydroxypropylcellulose) (HPC) 114 % of control | dose: 12.5 mg/kg/injection, schedule: Q01DX009 (ip), vehicle: Klucel (hydroxypropylcellulose) (HPC) 100 % of control | dose: 25.0 mg/kg/injection, schedule: Q01DX009 (ip), vehicle: Klucel (hydroxypropylcellulose) (HPC) 94 % of control | [4] 100 % of control | dose: 50.0 mg/kg/injection, schedule: Q01DX009 (ip), vehicle: Klucel (hydroxypropylcellulose) (HPC) 97 % of control | [19] 96 % of control | [5] 97 % of control | [1] 96 % of control

NC(N)=NC1CCCC1
inactive: [12] 104 % of control

COc1cc(/C=N/NC(=O)c2cccc([N+](=O)[O-])c2)ccc1O
inactive: [16] 98 % of control | dose: 100.0 mg/kg/injection, schedule: Q01DX009 (ip), vehicle: carboxymethylcellulose (CMC) 97 % of control and 107 % of control | dose: 100.0 mg/kg/injection, schedule: Q04DX002 (ip), vehicle: carboxymethylcellulose (CMC) 101 % of control and 108 % of control | [17] 96 % of control | dose: 200.0 mg/kg/injection, schedule: Q01DX009 (ip), vehicle: carboxymethylcellulose (CMC) 93 % of control and 103 % of control | dose: 200.0 mg/kg/injection, schedule: Q04DX002 (ip), vehicle: carboxymethylcellulose (CMC) 101 % of control and 104 % of control | [18] 91 % of control | dose: 400.0 mg/kg/injection, schedule: Q01DX009 (ip), vehicle: carboxymethylcellulose (CMC) 97 % of control and 100 % of control | dose: 400.0 mg/kg/injection, schedule: Q04DX002 (ip), vehicle: carboxymethylcellulose (CMC) 104 % of control and 105 % of control

CNS(=O)(=O)c1ccccc1C(=O)c1ccccc1
inactive: dose: 100.0 mg/kg/injection, schedule: Q01DX001 (ip), vehicle: saline 100 % of control | dose: 200.0 mg/kg/injection, schedule: Q01DX001 (ip), vehicle: saline 97 % of control | dose: 400.0 mg/kg/injection, schedule: Q01DX001 (ip), vehicle: saline 103 % of control

CC(C)(C)C1CCC(NC(=O)CCl)CC1 (centres undefined)
inactive: [19] 98 % of control | [5] 103 % of control | [1] 96 % of control | [2] 102 % of control | [7] 94 % of control | [3] 104 % of control

C[n+]1cc2c(CO)cc(CO)cc2c2ccccc21
inactive: dose: 75.0 mg/kg/injection, schedule: Q01DX001 (ip), vehicle: saline 97 % of control | dose: 150.0 mg/kg/injection, schedule: Q01DX001 (ip), vehicle: saline 95 % of control | dose: 300.0 mg/kg/injection, schedule: Q01DX001 (ip), vehicle: saline 97 % of control

CCOC(=O)NC(C(N)=O)C(N)=O
inactive: [1] 103 % of control | [2] 108 % of control | [3] 106 % of control

CC(=O)/C=C1\C(=O)Nc2ccccc21
inactive: dose: 100.0 mg/kg/injection, schedule: Q04DX002 (ip), vehicle: Klucel (hydroxypropylcellulose) (HPC) 104 % of control | dose: 200.0 mg/kg/injection, schedule: Q04DX002 (ip), vehicle: Klucel (hydroxypropylcellulose) (HPC) 89 % of control | dose: 400.0 mg/kg/injection, schedule: Q04DX002 (ip), vehicle: Klucel (hydroxypropylcellulose) (HPC) 91 % of control

CC1(Br)OC(=O)C(C)(Br)OC1=O (centres undefined)
inactive: [12] 96 % of control | [14] 96 % of control
